Holding throughout (assay type): cell-based
Test [1] deals with Sodium-dependent dopamine transporter (Homo sapiens, UniProt Q01959). Put plainly: Inhibition of […] reuptake in human DAT expressed in HEK293 cells by microbeta liquid scintillation counting method.
For test [2], the target named is Sodium-dependent serotonin transporter (Homo sapiens, UniProt P31645). As to the kind of experiment: Inhibition of [3H]-5-hydroxytryptamine reuptake in human SERT expressed in HEK293 cells by microbeta liquid scintillation counting method.
Sequence of Sodium-dependent serotonin transporter (P31645 whole entry): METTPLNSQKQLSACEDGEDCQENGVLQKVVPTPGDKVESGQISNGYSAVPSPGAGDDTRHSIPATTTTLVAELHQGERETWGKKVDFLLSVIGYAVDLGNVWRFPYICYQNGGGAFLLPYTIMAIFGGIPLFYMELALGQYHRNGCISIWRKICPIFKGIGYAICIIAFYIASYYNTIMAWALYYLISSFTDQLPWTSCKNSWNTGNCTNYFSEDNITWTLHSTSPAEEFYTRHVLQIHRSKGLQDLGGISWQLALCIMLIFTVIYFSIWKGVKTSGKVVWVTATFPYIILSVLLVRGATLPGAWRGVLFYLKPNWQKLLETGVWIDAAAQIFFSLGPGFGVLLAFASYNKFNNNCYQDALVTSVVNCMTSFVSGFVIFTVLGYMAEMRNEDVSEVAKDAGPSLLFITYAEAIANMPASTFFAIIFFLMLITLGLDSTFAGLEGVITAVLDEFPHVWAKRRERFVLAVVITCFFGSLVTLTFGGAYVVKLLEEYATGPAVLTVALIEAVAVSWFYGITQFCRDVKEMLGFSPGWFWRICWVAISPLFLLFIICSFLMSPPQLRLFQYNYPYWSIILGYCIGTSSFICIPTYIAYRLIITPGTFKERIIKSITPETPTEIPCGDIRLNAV
In test [3] the target is Sodium-dependent noradrenaline transporter (Homo sapiens, UniProt P23975). As to the kind of experiment: Inhibition of […] reuptake in human NET expressed in HEK293 cells by microbeta liquid scintillation counting method.
Sequence of Sodium-dependent noradrenaline transporter (P23975 whole entry): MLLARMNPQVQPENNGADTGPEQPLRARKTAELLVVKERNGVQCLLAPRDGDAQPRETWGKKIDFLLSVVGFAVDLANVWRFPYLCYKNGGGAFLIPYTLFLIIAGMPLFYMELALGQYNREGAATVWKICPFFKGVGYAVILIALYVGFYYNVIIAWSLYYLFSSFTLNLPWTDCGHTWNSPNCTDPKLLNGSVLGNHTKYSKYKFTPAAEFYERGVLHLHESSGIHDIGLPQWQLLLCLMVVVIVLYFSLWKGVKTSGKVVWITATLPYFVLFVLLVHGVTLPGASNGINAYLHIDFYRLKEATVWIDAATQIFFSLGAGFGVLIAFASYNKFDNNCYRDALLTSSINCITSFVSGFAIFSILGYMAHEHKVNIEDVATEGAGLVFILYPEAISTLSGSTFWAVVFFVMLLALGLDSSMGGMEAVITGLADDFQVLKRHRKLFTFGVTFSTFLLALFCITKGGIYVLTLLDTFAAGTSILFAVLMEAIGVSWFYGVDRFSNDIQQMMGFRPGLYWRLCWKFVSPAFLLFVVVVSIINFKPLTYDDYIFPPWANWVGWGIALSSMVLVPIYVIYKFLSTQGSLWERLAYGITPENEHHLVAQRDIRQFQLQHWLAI

Molecules are shown by their SMILES. Some results are limits rather than exact numbers.

Sequence of Sodium-dependent dopamine transporter (Q01959 whole entry): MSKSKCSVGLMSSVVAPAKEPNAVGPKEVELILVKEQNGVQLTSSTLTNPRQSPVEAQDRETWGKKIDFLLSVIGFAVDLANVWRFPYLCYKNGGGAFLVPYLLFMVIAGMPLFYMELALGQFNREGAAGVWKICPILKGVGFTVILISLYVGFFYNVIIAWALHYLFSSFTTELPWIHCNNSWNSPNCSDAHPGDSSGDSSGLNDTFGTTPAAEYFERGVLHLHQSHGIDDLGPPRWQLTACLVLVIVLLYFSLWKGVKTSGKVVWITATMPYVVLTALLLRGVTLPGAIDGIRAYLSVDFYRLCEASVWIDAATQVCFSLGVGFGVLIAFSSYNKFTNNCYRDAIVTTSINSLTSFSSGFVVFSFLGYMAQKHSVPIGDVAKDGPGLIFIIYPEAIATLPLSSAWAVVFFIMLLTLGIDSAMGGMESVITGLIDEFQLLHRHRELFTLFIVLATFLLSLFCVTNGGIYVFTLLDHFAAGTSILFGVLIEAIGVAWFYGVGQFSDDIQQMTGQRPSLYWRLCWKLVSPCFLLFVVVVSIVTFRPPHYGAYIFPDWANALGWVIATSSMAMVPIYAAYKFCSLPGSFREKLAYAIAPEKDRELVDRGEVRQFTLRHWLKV

As to `O=C(NCCCN1CCC(Cc2ccccc2)CC1)C(c1ccccc1)c1ccccc1`, the concentration for half-maximal inhibition (IC50) in test [1] was 1070 nM; in test [2], > 10000 nM; in test [3], 2210 nM.

For `O=C(NCCCN1CCC(Cc2ccccc2)CC1)C(c1ccc(Cl)cc1)c1ccc(Cl)cc1`, the concentration for half-maximal inhibition (IC50) in test [1] was determined as 1350 nM; in test [2], 7670 nM; in test [3], 2020 nM.

Take `O=C(NCCN1CCC(Cc2ccccc2)CC1)C(c1ccccc1)c1ccccc1`: the IC50 was 190 nM in test [1], > 10000 nM in test [2] and 1680 nM in test [3].

With `O=C(NCCN1CCC(Cc2ccccc2)CC1)C(c1ccc(Cl)cc1)c1ccc(Cl)cc1`, the values for the IC50 in test [1], in test [2] and in test [3] were 630 nM, > 10000 nM and 8030 nM, respectively.

In the case of `C(=C\c1ccccc1)/CN1CCN(CCCn2nnnc2C(c2ccccc2)c2ccccc2)CC1`, the IC50 in test [1] came to 2230 nM; in test [2], 7500 nM; in test [3] it was 1330 nM.

For the compound `c1ccc(CCCN2CCN(CCCn3nnnc3C(c3ccccc3)c3ccccc3)CC2)cc1`, the half-inhibitory concentration (IC50) in test [1] came out at 1640 nM; in test [2], 8000 nM; in test [3], 569 nM.

For the compound `Fc1ccc(C(OCCN2CCN(c3cccc(Cl)c3Cl)CC2)c2ccc(F)cc2)cc1`, the figures for the IC50 in test [1], in test [2] and in test [3] were 3000 nM, 5000 nM and 3000 nM, respectively.

Take `Fc1ccc(C(OCCN2CCN(c3ccccc3Cl)CC2)c2ccc(F)cc2)cc1`: the IC50 in test [1] is 5600 nM; in test [2], > 10000 nM; in test [3], 1260 nM.

Consider `Fc1ccc(C(OCCN2CCC(Cc3ccccc3)CC2)c2ccc(F)cc2)cc1`, for which the figures for the 50% inhibitory concentration (IC50) in test [1], in test [2] and in test [3] were 6820 nM, 1670 nM and 5860 nM, respectively.

As for `c1ccc(CC2CCN(CCCn3nnnc3C(c3ccccc3)c3ccccc3)CC2)cc1`, the IC50 in test [1] was 94 nM; in test [2], > 10000 nM; in test [3], 519 nM.

Turning to `c1ccc(CN2CCN(CCCn3nnnc3C(c3ccccc3)c3ccccc3)CC2)cc1`, the IC50 in test [1] came to 292 nM; in test [2], 5050 nM; in test [3], 521 nM.

Regarding `c1ccc(CCN2CCN(CCCCn3nnnc3C(c3ccccc3)c3ccccc3)CC2)cc1`, the 50% inhibitory concentration (IC50) in test [1] came out at 608 nM; in test [2], 8000 nM; in test [3], 329 nM.

Consider `C(=C\c1ccccc1)/CN1CCN(CCCCn2nnnc2C(c2ccccc2)c2ccccc2)CC1`, for which the IC50 in test [1] was 3640 nM; in test [2], 6290 nM; in test [3] it was 318 nM.

Take `Fc1ccc(C(OCCN2CCN(c3ccccn3)CC2)c2ccc(F)cc2)cc1`: the figures for the IC50 in test [1], in test [2] and in test [3] were 990 nM, 579 nM and 603 nM, respectively.

Regarding `Fc1ccc(C(OCCN2CCN(c3ccc(Cl)cc3Cl)CC2)c2ccc(F)cc2)cc1`, the figures for the IC50 in test [1], in test [2] and in test [3] were 10000 nM, 3910 nM and 3750 nM, respectively.

For `c1ccc(CCN2CCN(CCn3nnnc3C(c3ccccc3)c3ccccc3)CC2)cc1`, the IC50 is 680 nM in test [1], 4830 nM in test [2] and 2830 nM in test [3].

As for `Fc1ccc(C(OCCN2CCN(c3cccc(Cl)c3)CC2)c2ccc(F)cc2)cc1`, the IC50 in test [1] stood at 2750 nM; in test [2], 4960 nM; in test [3], 1310 nM.

As to `c1ccc(CCCN2CCN(CCn3nnnc3C(c3ccccc3)c3ccccc3)CC2)cc1`, the IC50 was 692 nM in test [1], 3860 nM in test [2] and 1470 nM in test [3].

For `Fc1ccc(C(OCCN2CCN(c3ccc(Cl)cc3)CC2)c2ccc(F)cc2)cc1`, the half-inhibitory concentration (IC50) came to 1390 nM in test [1], 6910 nM in test [2] and 1590 nM in test [3].

For `c1ccc(CC2CCN(CCn3nnnc3C(c3ccccc3)c3ccccc3)CC2)cc1`, the IC50 in test [1] was 310 nM; in test [2], 7700 nM; in test [3] it was 1710 nM.

On to `Fc1ccc(C(OCCN2CCN(c3ccccc3)CC2)c2ccc(F)cc2)cc1`, for which the IC50 in test [1] stood at 10000 nM; in test [2], 1910 nM; in test [3] it was 5330 nM.

As to `c1ccc(CN2CCN(CCn3nnnc3C(c3ccccc3)c3ccccc3)CC2)cc1`, the figures for the IC50 in test [1], in test [2] and in test [3] were 2290 nM, > 10000 nM and 4220 nM, respectively.

For `c1ccc(CCN2CCN(CCCn3nnnc3C(c3ccccc3)c3ccccc3)CC2)cc1`, the IC50 in test [1] was determined as 1110 nM; in test [2], 1120 nM; in test [3], 400 nM.

As to `c1ccc(CC2CCN(CCCCn3nnnc3C(c3ccccc3)c3ccccc3)CC2)cc1`, the concentration for half-maximal inhibition (IC50) was 590 nM in test [1], 550 nM in test [2] and 1530 nM in test [3].

As to `C(=C\c1ccccc1)/CN1CCN(CCn2nnnc2C(c2ccccc2)c2ccccc2)CC1`, the figures for the IC50 in test [1], in test [2] and in test [3] were 940 nM, > 10000 nM and 1760 nM, respectively.

Regarding `Fc1ccc(C(OCCN2CCN(c3ccc(Cl)c(Cl)c3)CC2)c2ccc(F)cc2)cc1`, the IC50 in test [1] came to 4100 nM; in test [2], 5220 nM; in test [3] it was 1320 nM.

On to `c1ccc(CN2CCN(CCCCn3nnnc3C(c3ccccc3)c3ccccc3)CC2)cc1`, for which the IC50 is 317 nM in test [1], 1500 nM in test [2] and 323 nM in test [3].

On to `Fc1ccc(C(OCCN2CCN(c3ncccn3)CC2)c2ccc(F)cc2)cc1`, for which the values for the IC50 in test [1], in test [2] and in test [3] were 1700 nM, 1410 nM and 1620 nM, respectively.

One may read the IC50 as the concentration that gives 50% inhibition.

For the origin of these results see ChEMBL document CHEMBL4004887, “Design, synthesis and in vitro activity of 1,4-disubstituted piperazines and piperidines as triple reuptake inhibitors” (Bioorg Med Chem, 2017).
